Measured values as given in patent US11052100B2, “Stable nicotinamide riboside composition and preparation method thereof” (BONTAC BIO-ENGINEERING (SHENZHEN) CO., LTD, priority 2018, dated 2021).

Assay: Stability accelerated test (purity of nicotinamide riboside by HPLC)
Type: physicochemical
Settings: 25° C.±2° C., relative humidity 60% ±10%, average of 3 samples
Description: The stability accelerated test was carried out on test subjects (nicotinamide riboside and the nicotinamide riboside composition prepared in Embodiment 1 to Embodiment 4 of the present invention) in accordance with the provisions of the Guidelines for Drug Stability Test in the Chinese Pharmacopoeia 2015. The test method was: taking 3 samples from each test subject in an environment with a temperature of 25° C.±2° C. and a relative humidity of 60% ±10%, taking samples once at the end of the 0th month, 1st month, 2nd month, 3rd month, and 6th month during the test period, detecting the purity of nicotinamide riboside by HPLC, and calculating an average value of 3 parts. In the table, 1, 2, 3 and 4 in the first column represent Embodiment 1, Embodiment 2, Embodiment 3 and Embodiment 4, respectively, NR represents nicotinamide riboside, KGM represents konjac glucomannan, and RA represents rebaudioside A.

purity of nicotinamide riboside by HPLC, 0th month (end of 0th month): 99.6% | purity of nicotinamide riboside by HPLC, 1st month (end of 1st month): 10.6% | purity of nicotinamide riboside by HPLC, 2nd month (end of 2nd month): 5.1% | purity of nicotinamide riboside by HPLC, 3rd month (end of 3rd month): 3.4% | purity of nicotinamide riboside by HPLC, 6th month (end of 6th month): 3.2%
Compound: NC(=O)c1ccc[n+]([C@@H]2O[C@H](CO)[C@@H](O)[C@H]2O)c1 [NR, Nicotinamide riboside]
